Reference: US5324730A, “Phenoxyphosphoryloxymethyl cyclobutyl purines” (Nippon Kayaku Kabushiki Kaisha, priority 1990, dated 1994)
Converted amounts (≈) assume the structure as drawn.

How the values were obtained:
[1] = tested on: Herpes simplex 1 virus (HSV-1); experiment: Antiviral activity against HSV-1, CPE inhibition in Vero cells (Method 1); assay type: cell-based; conditions: Human alphaherpesvirus 1, 50% inhibition of CPE, about 72 hours, Neutral Red
Protocol: Antiviral activity against Herpes simplex 1 virus (HSV-1) which is a DNA virus was tested by the following method.
Vero cells (originated from kidney cells of African Green Monkey) were cultured in MEM medium to which 10% bovine embryo serum had been added. A cell suspension adjusted to a concentration of 200,000 cells/ml was spread onto 96 wells plate (COSTAR) and cultured for 24 hours so that the cells became confluent. To the medium drawn out was added HSV-1 virus, and it was infected for one hour. Then, the virus fluid was drawn out and cultured for about 72 hours in a fresh medium containing agents. The alive cells were stained with a staining solution containing Neutral Red and absorbance at a wavelength of 546 nm (A546) was measured to evaluate the cytopathic effect (CPE).
CPE inhibition (%) was calculated according to the following equation: [formula] and a quantity of sample enough for 50% inhibition of the CPE due to virus was taken as IC50 (μg/ml).

hepatitis B virus (HBV) = experiment: Antiviral activity against HBV, inhibition of HBV DNA synthesis in HB611 cells (Method 3); assay type: cell-based; conditions: 360 h, 50% inhibition of HBV DNA synthesis, 15 days, read-out: ID50 HBV
Protocol: Antiviral activity against hepatitis B virus (HBV) which is a DNA virus was tested by the following method.
The test was done by using a cell line, HB611, that was established by transfection and continuously produces HBV like particles [Proc. Natl. Acad. Sci. USA, 84, 444-449, 1987]. HB611 cells were maintained in Dulbecco's modified Eagle medium (Gibco) supplemented with 10% fetal bovine serum (Gibco), 100 μg/ml of streptomycin, 100 IU ml of benzyl penicillin (Gibco) and 200 μg/ml of geneticin (Gibco) at 37° C. in 5% CO2 -95% air.
The cells were seeded in 24-well plate (Corning) at a density of 3×10^4 cells/well, using 1.0 ml of the medium. After 2 days of incubation, the medium was replaced with the same medium containing the test compound. The cells were incubated for a further 15 days, during which time the medium containing the drug was exchanged every three days. The cells were then harvested and cellular DNA was prepared [Virology, 169, 213-216, 1989], and digested with restriction enzyme Hind III (Takara Shuzo Co., Ltd.). An aliquot (2-3 μg) was electrophoresed in 1.5% agarose gel, followed by blotting onto a nylon membrane Hybond-N^+ according to Southern [J. Mol. Biol., 98, 503-517, 1975]. The filter was hybridized to random primed 32p labeled HBV DNA probe, and washed twice with 2× standard saline citrate containing 0.1% SDS at 65° C. for 30 min. It was then autoradiographed, and the results were analyzed using a densitometric analyzer (Shimadzu, Chromatoscana S930).
To quantitatively evaluate the inhibitory activity of the compounds, we measured the band areas S, D1, D2 (S, D1 and D2 represent intracellular free HBV DNA derived from replicative intermediates) and I (represents chromosomally integrated HBV DNA) by densitometric analyzer, and calculated the inhibition percentage as follows: [formula]
In table 1, antiviral activity is represented by 50% inhibition doses (ID50) on HBV DNA synthesis.

[2] = Oral absorbability: plasma concentration of Compound 1a (B^1 = 9-guanyl) in mice after oral or intravenous administration (Method 4); assay type: in vivo; conditions: Compound 1a (B^1 = 9-guanyl) in plasma, male CDF1 mice; for AUC, intravenous injection / Tmax, intravenous injection: 75 μM/kg intravenous; for AUC, oral administration / Tmax, oral administration: 75 μM/kg oral
Protocol: Oral absorbability of compounds of this invention were tested according to the following method.
Male CDF1 mice (6-8 weeks in age) (Japan Charles Liver Co.) were used. Each substance to be tested was dissolved into physiological salt solution, and its 75 μM/kg dosage (0.1-0.5 ml/10 g dosage) was administered orally or intravenously. Ten minutes, thirty minutes, one hour and 3 hours after the administration, blood was taken from 2-3 heads of mice by means of an injection tube previously treated with heparin, and the blood was centrifuged at 3,000 rpm for 10 minutes to obtain a plasma. To 200 μl of the plasma was added 9-[2-hydroxy-3-hydroxymethylcyclobutan-1-yl]-guanine (2 μg/10 μl […]) as an internal standard. After diluting it with 4 ml of water, it was washed with 2 ml of water by the use of Ceppack C18 Cartridge (Millipore Waters Co.). It was eluted with 5 ml of methanol, concentrated to dryness, re-dissolved into 200 μl of water, and then subjected to HPLC to measure the concentration of 9-((1R,2R,3S)-2,3-bis(hydroxymethyl)-1cyclobutyl) guanine (Compound 1a, wherein B^1 =9-guanyl), from which maximum concentration (Cmax), time of maximum concentration (Tmax) and the area under the concentration curve (AUC) were determined.
Column: Cosmosil 5C18-P (Nacalai Tesque, 250 mm×4.6 mm, i.d.)
Solvent: 0.1. M citric acid (pH 4): acetonitrile:methanol=50:2:1

[3] = tested on: human cytomegalo-virus (HCMV); experiment: Antiviral activity against HCMV, plaque reduction in human embryonic fibroblasts (Method 2); assay type: cell-based; conditions: Human betaherpesvirus 5, Fibroblast, plaque number reduced to 50%, 9 or 10 days
Protocol: Antiviral activity against human cytomegalo-virus (HCMV) which is a DNA virus was tested by the following method.
Confluent monolayers of human embryonic fibroblasts in plastic dishes (diameter: 35 mm) were infected with 100 to 150 plaque forming units of HCMV. After an 1-hour adsorption period at 37° C., the cultures were overlaid with 2 ml of 0.5% agarose in Eagle's minimum essential medium containing 3% fetal calf serum and various concentrations of drugs. The cultures infected with HCMV were fixed and stained at 9 or 10 days after infection. The second agarose overlay containing appropriate concentrations of drugs was added 5 days after infection. Plaque numbers were counted by using a dissecting microscope at ×20 magnification. The antiviral activities of drugs were expressed in terms of median effective concentrations (EC50) which were defined as the drug concentrations that reduced the number of plaques to 50%.

With Nc1nc2c(ncn2[C@@H]2C[C@H](COP(=O)(O)Oc3ccccc3Cl)[C@H]2CO)c(=O)[nH]1 [Compound 50, 9-[(1R,2R,3S)-2-hydroxymethyl-3-(hydroxy(2-chlorophenoxy)phosphoryl)oxymethyl-1-cyclobutyl]-guanine] the IC50 [1] was 1.13 µg/mL (≈ 2.48 µM), the IC50 (hepatitis B virus (HBV)) was ~0.1 µg/mL (≈ 0.219 µM) and the “AUC, intravenous injection” value [2] was 3177 ng·h/mL. The “Tmax, intravenous injection” value [2] was 10 ', the “AUC, oral administration” value [2] was 1526 ng·h/mL and the “Tmax, oral administration” value [2] was 30 '. It also gave an EC50 [3] of 1 to 3 µg/mL (≈ 2.19 to 6.58 µM).
In the case of Nc1nc2c(ncn2[C@@H]2C[C@H](COP(=O)(O)Oc3ccc(Cl)cc3)[C@H]2CO)c(=O)[nH]1 [Compound 56, 9-[(1R,2R,3S)-2-hydroxymethyl-3-(hydroxy(4-chlorophenoxy)phosphoryl)oxymethyl-1-cyclobutyl]-guanine], the IC50 [1] was 0.699 µg/mL (≈ 1.53 µM), the IC50 (hepatitis B virus (HBV)) was 0.1 to 1 µg/mL (≈ 0.219 to 2.19 µM) and the “AUC, intravenous injection” value [2] was 3167 ng·h/mL. For the same compound, the “Tmax, intravenous injection” value [2] was 10 ', the “AUC, oral administration” value [2] was 1762 ng·h/mL and the “Tmax, oral administration” value [2] was 10 '. For the same compound, the EC50 [3] was 1 to 3 µg/mL (≈ 2.19 to 6.58 µM).
For Cc1ccc(OP(=O)(O)OC[C@H]2C[C@@H](n3cnc4c(=O)[nH]c(N)nc43)[C@@H]2CO)cc1 [Compound 68, 9-[(1R,2R,3S)-2-hydroxymethyl-3-(hydroxy(4-methylphenoxy)phosphoryl)oxymethyl-1-cyclobutyl]-guanine], the IC50 [1] was 1.26 µg/mL (≈ 2.89 µM), the IC50 (hepatitis B virus (HBV)) was 0.1 to 1 µg/mL (≈ 0.23 to 2.3 µM) and the “AUC, intravenous injection” value [2] was 4116 ng·h/mL. For the same compound, the “Tmax, intravenous injection” value [2] was 10 ', the “AUC, oral administration” value [2] was 1754 ng·h/mL and the “Tmax, oral administration” value [2] was 30 '. It also gave an EC50 [3] of 0.1 to 1 µg/mL (≈ 0.23 to 2.3 µM).
With Nc1nc2c(ncn2[C@@H]2C[C@H](CO)[C@H]2COP(=O)(O)Oc2ccccc2)c(=O)[nH]1 [Compound 13, 9-[(1R,2R,3S)-3-hydroxymethyl-2-(hydroxy-(phenoxy)phosphoryl)oxymethyl-1-cyclobutyl]-guanine] the “AUC, intravenous injection” value [2] was 2962 ng·h/mL, the “Tmax, intravenous injection” value [2] was 10 ' and the “AUC, oral administration” value [2] was 1122 ng·h/mL. For the same compound, the “Tmax, oral administration” value [2] was 30 '.
For Nc1nc2c(ncn2[C@@H]2C[C@H](COP(=O)(O)Oc3ccccc3)[C@H]2CO)c(=O)[nH]1 [Compound 14, 9-[(1R,2R,3S)-2-hydroxymethyl-3-(hydroxy-(phenoxy)phosphoryl)oxymethyl-1-cyclobutyl]-guanine], the “AUC, intravenous injection” value [2] was 5076 ng·h/mL, the “Tmax, intravenous injection” value [2] was 10 ' and the “AUC, oral administration” value [2] was 2262 ng·h/mL. For the same compound, the “Tmax, oral administration” value [2] was 30 '.
In the case of Nc1nc2c(ncn2[C@@H]2C[C@H](COP(=O)(O)Oc3ccc(F)cc3)[C@H]2CO)c(=O)[nH]1 [Compound 65, 9-[(1R,2R,3S)-2-hydroxymethyl-3-(hydroxy(4-fluorophenoxy)phosphoryl)oxymethyl-1-cyclobutyl]-guanine], the IC50 [1] was 1.13 µg/mL (≈ 2.57 µM), the IC50 (hepatitis B virus (HBV)) was 0.1 to 1 µg/mL (≈ 0.228 to 2.28 µM) and the “AUC, intravenous injection” value [2] was 6373 ng·h/mL. For the same compound, the “Tmax, intravenous injection” value [2] was 10 ', the “AUC, oral administration” value [2] was 1712 ng·h/mL and the “Tmax, oral administration” value [2] was 30 '. For the same compound, the EC50 [3] was 1 to 3 µg/mL (≈ 2.28 to 6.83 µM).
With COc1ccc(OP(=O)(O)OC[C@H]2C[C@@H](n3cnc4c(=O)[nH]c(N)nc43)[C@@H]2CO)cc1 [Compound 71, 9-[(1R,2R,3S)-2-hydroxymethyl-3-(hydroxy(4-methoxyphenoxy)phosphoryl)oxymethyl-1-cyclobutyl]-guanine] the IC50 [1] was 0.873 µg/mL (≈ 1.93 µM), the IC50 (hepatitis B virus (HBV)) was 0.1 to 1 µg/mL (≈ 0.222 to 2.22 µM) and the “AUC, intravenous injection” value [2] was 4393 ng·h/mL. For the same compound, the “Tmax, intravenous injection” value [2] was 10 ', the “AUC, oral administration” value [2] was 1678 ng·h/mL and the “Tmax, oral administration” value [2] was 10 '. It also gave an EC50 [3] of 0.1 to 1 µg/mL (≈ 0.222 to 2.22 µM).
With Nc1nc2c(ncn2[C@@H]2C[C@H](COP(=O)(O)Oc3cccc(Cl)c3)[C@H]2CO)c(=O)[nH]1 [Compound 53, 9[-(1R,2R,3S)-2-hydroxymethyl-3-(hydroxy(3-chlorophenoxy)phosphoryl)oxymethyl-1-cyclobutyl]-guanine] the IC50 [1] was 1.22 µg/mL (≈ 2.68 µM), the IC50 (hepatitis B virus (HBV)) was 0.1 to 1 µg/mL (≈ 0.219 to 2.19 µM) and the “AUC, intravenous injection” value [2] was 3228 ng·h/mL. The “Tmax, intravenous injection” value [2] was 10 ', the “AUC, oral administration” value [2] was 1405 ng·h/mL and the “Tmax, oral administration” value [2] was 30 '. For the same compound, the EC50 [3] was 1 to 3 µg/mL (≈ 2.19 to 6.58 µM).
